Source: PubChem BioAssay (NCI)
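The compound was tested at five concentrations on cells cultured in 96-well plates, with a 48-hour exposure period. GI50 is the concentration that inhibits growth by half. TGI: concentration producing complete growth inhibition.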

Tests used:
Test in all cases: NCI anticancer screen, dose series, 48 h
[1] = test system: M14 melanoma
[2] = test system: ACHN renal
[3] = test system: HCT-116 colon
[4] = test system: K-562 leukemia
[5] = test system: DU-145 prostate
[6] = test system: UACC-257 melanoma
[7] = test system: OVCAR-3 ovarian
[8] = test system: SW-620 colon
[9] = test system: OVCAR-8 ovarian
[10] = test system: OVCAR-4 ovarian
[11] = test system: EKVX NSCLC
[12] = test system: MOLT-4 leukemia
[13] = test system: UO-31 renal
[14] = test system: SF-268 CNS
[15] = test system: HOP-92 NSCLC
[16] = test system: SF-539 CNS
[17] = test system: UACC-62 melanoma
[18] = test system: 786-0 renal
[19] = test system: OVCAR-5 ovarian
[20] = test system: TK-10 renal
[21] = test system: COLO 205 colon
[22] = test system: A498 renal
[23] = test system: HCT-15 colon
[24] = test system: CAKI-1 renal
[25] = test system: HT29 colon
[26] = test system: SK-MEL-28 melanoma
[27] = test system: BT-549 breast
[28] = test system: SR leukemia
[29] = test system: RPMI-8226 leukemia
[30] = test system: SK-MEL-5 melanoma
[31] = test system: HCC-2998 colon
[32] = test system: SN12C renal
[33] = test system: PC-3 prostate
[34] = test system: RXF 393 renal
[35] = test system: CCRF-CEM leukemia
[36] = test system: MCF7 breast
[37] = test system: KM12 colon
[38] = test system: A549 NSCLC
[39] = test system: SK-MEL-2 melanoma
[40] = test system: NCI-H226 lung
[41] = test system: MDA-MB-231 breast
[42] = test system: HL-60(TB) leukemia
[43] = test system: NCI/ADR-RES ovarian
[44] = test system: HOP-62 NSCLC
[45] = test system: HS 578T breast
[46] = test system: SK-OV-3 ovarian
[47] = test system: IGROV1 ovarian
[48] = test system: SNB-19 CNS
[49] = test system: NCI-H23 lung
[50] = test system: T-47D breast
[51] = test system: SF-295 CNS
[52] = test system: SNB-75 CNS
[53] = test system: U251 CNS
[54] = test system: LOX IMVI melanoma
[55] = test system: NCI-H460 lung

## c1ccc(CC(Cc2ccccc2)C2=NCCCN2)cc1
[1]
  GI50: 3.17 µM
  TGI: > 100 µM
[2]
  GI50: 7.95 µM
  TGI: > 100 µM
[3]
  GI50: 3.71 µM
  TGI: 17.3 µM
[4]
  GI50: 4.04 µM
  TGI: > 100 µM
[5]
  GI50: 3.36 µM
  TGI: 9.75 µM
[6]
  GI50: 17 µM
  TGI: > 100 µM
[7]
  GI50: 2.42 µM
  TGI: 4.97 µM
[8]
  GI50: 3.94 µM
  TGI: > 100 µM
[9]
  GI50: 3.21 µM
  TGI: > 100 µM
[10]
  GI50: 3.93 µM
  TGI: > 100 µM
[11]
  GI50: 6.96 µM
  TGI: > 100 µM
[12]
  GI50: 3.56 µM
  TGI: 23.2 µM
[13]
  GI50: 7.83 µM
  TGI: > 100 µM
[14]
  GI50: 5.25 µM
  TGI: > 100 µM
[15]
  GI50: 4.52 µM
  TGI: 64.6 µM
[16]
  GI50: 3.37 µM
  TGI: > 100 µM
[17]
  GI50: 4.22 µM
  TGI: > 100 µM
[18]
  GI50: 4.26 µM
  TGI: > 100 µM
[19]
  GI50: 5.95 µM
  TGI: > 100 µM
[20]
  GI50: 7.57 µM
  TGI: > 100 µM
[21]
  GI50: 3.49 µM
  TGI: 12.4 µM
[22]
  GI50: 1.84 µM
  TGI: 33.2 µM
[23]
  GI50: 3.44 µM
  TGI: > 100 µM
[24]
  GI50: 6.39 µM
  TGI: > 100 µM
[25]
  GI50: 3.48 µM
  TGI: > 100 µM
[26]
  GI50: 6.4 µM
  TGI: > 100 µM
[27]
  GI50: 3.77 µM
  TGI: 70.9 µM
[28]
  GI50: 3.78 µM
  TGI: > 100 µM
[29]
  GI50: 3.62 µM
  TGI: 42.3 µM
[30]
  GI50: 2.73 µM
  TGI: 9.52 µM
[31]
  GI50: 3.08 µM
  TGI: 9.35 µM
[32]
  GI50: 4.18 µM
  TGI: > 100 µM
[33]
  GI50: 3.87 µM
  TGI: > 100 µM
[34]
  GI50: 2.82 µM
  TGI: > 100 µM
[35]
  GI50: 3.12 µM
  TGI: 93.3 µM
[36]
  GI50: 3.57 µM
  TGI: > 100 µM
[37]
  GI50: 3.26 µM
  TGI: > 100 µM
[38]
  GI50: 3.42 µM
  TGI: > 100 µM
[39]
  GI50: 2.66 µM
  TGI: 7.91 µM
[40]
  GI50: 2.48 µM
  TGI: 7.47 µM
[41]
  GI50: 5.37 µM
  TGI: > 100 µM
[42]
  GI50: 2.38 µM
  TGI: 6.41 µM
[43]
  GI50: 2.99 µM
  TGI: > 100 µM
[44]
  GI50: 4.83 µM
  TGI: > 100 µM
[45]
  GI50: 4.07 µM
  TGI: > 100 µM
[46]
  GI50: 2.1 µM
  TGI: 6.44 µM
[47]
  GI50: 4.2 µM
  TGI: > 100 µM
[48]
  GI50: 3.49 µM
  TGI: > 100 µM
[49]
  GI50: 3.48 µM
  TGI: > 100 µM
[50]
  GI50: 30.8 µM
  TGI: > 100 µM
[51]
  GI50: 3.32 µM
  TGI: > 100 µM
[52]
  GI50: 7.8 µM
  TGI: > 100 µM
[53]
  GI50: 3.38 µM
  TGI: > 100 µM
[54]
  GI50: 3.71 µM
  TGI: 23.6 µM
[55]
  GI50: 3.36 µM
  TGI: 21.9 µM
